# Experimental data as given in patent publication US20240174618A1, “SUBSTITUTED (2-HETEROARYLOXYPHENYL)SULFONATES, SALTS THEREOF AND THEIR USE AS HERBICIDAL AGENTS” (Bayer Aktiengesellschaft, priority 2021, published 2024).
# How the values were obtained:
# Assay type in all cases: in vivo
# Veronica persica (VERPE) = assay: B. Herbicidal post-emergence efficacy, VERPE
# Procedure, shortened: (§1)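 First, seeds were sown in sandy loam and grown 2 to 3 weeks under controlled greenhouse conditions. Next, foliage at the one-leaf stage received the formulated compound in water with 0.5% additive (600 L/ha, 1280 g/ha or less). Finally, damage was rated visually after about 3 weeks against untreated plants.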
# Poa annua (POAAN) = assay: B. Herbicidal post-emergence efficacy, POAAN
# Procedure, shortened: as §1
# Stellaria media (STEME) = assay: A. Herbicidal pre-emergence efficacy, STEME
# Procedure, shortened: (§2)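 Pre-emergence soil-surface spray in sandy loam pots, WP/EC in water plus 0.5% additive, 600 L/ha. Visual % damage rating after about 3 weeks in greenhouse vs. untreated; 0% = control-like, 100% = dead plants. Rates up to 1280 g/ha.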
# Kochia scoparia (KCHSC) = assay: A. Herbicidal pre-emergence efficacy, KCHSC
# Procedure, shortened: as §2
# Setaria viridis (SETVI) = assay: B. Herbicidal post-emergence efficacy, SETVI
# Procedure, shortened: as §1
# [1] = tested on: Echinochloa crus-galli (ECHCG); assay: E. Herbicidal post-emergence efficacy, ECHCG
# Procedure: Seeds of monocotyledonous and dicotyledonous weeds and crop plants were placed in sandy loam in plastic or organic planting pots, covered with soil and cultivated in a greenhouse under controlled growth conditions. 2 to 3 weeks after sowing, the test plants were treated at the one-leaf stage. The compounds of the invention, formulated in the form of wettable powders (WP) or as emulsion concentrates (EC), were then sprayed onto the green parts of the plants as aqueous suspension or emulsion with addition of 0.5% additive at a water application rate of 600 l/ha (converted). After the test plants had been kept in the greenhouse under optimum growth conditions for about 3 weeks, the activity of the preparations was rated visually in comparison to untreated controls.
# For example, • 100% efficacy=plants have died, • 0% action=like untreated control plants.
# Tables E1a to E12b below show the effects of selected compounds of the general formula (I) according to table 1 on various harmful plants at an application rate corresponding to 320 g/ha or less, which were obtained by the experimental procedure mentioned above.
# Viola tricolor (VIOTR) [2] = assay: C. Herbicidal pre-emergence efficacy, VIOTR
# Procedure, shortened: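 Pre-emergence test: formulated compounds sprayed as aqueous suspension or emulsion with 0.5% additive at 600 l/ha onto soil covering sown seeds, at rates corresponding to 320 g/ha or less. After about 3 weeks in greenhouse, efficacy scored visually as percent versus untreated controls (100% = plants dead).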
# Viola tricolor (VIOTR) [3] = assay: E. Herbicidal post-emergence efficacy, VIOTR
# Procedure, shortened: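 Greenhouse weeds were treated post-emergence at the one-leaf stage, 2-3 weeks after sowing in sandy loam, with WP or EC formulations sprayed as aqueous suspension/emulsion plus 0.5% additive at 600 l/ha, at 320 g/ha or less. Efficacy was rated visually after about 3 weeks versus untreated controls (100% = dead, 0% = like control).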
# [4] = pre-emergence, dosage 1280 g/ha
# [5] = 80 g/ha, scored visually after about 3 weeks vs untreated controls
SMILES,Post-emergence efficacy against VERPE (Veronica persica (VERPE); 80 g/ha) [%],Post-emergence efficacy against VERPE (Veronica persica (VERPE); 320 g/ha) [%],Post-emergence efficacy against VERPE (Veronica persica (VERPE); 1280 g/ha) [%],Post-emergence efficacy against POAAN (Poa annua (POAAN); 320 g/ha) [%],Post-emergence efficacy against POAAN (Poa annua (POAAN); 1280 g/ha) [%],Pre-emergence efficacy against STEME (Stellaria media (STEME); dosage 80 g/ha) [%],Pre-emergence efficacy against STEME (Stellaria media (STEME); dosage 320 g/ha) [%],Pre-emergence efficacy against STEME (Stellaria media (STEME); dosage 1280 g/ha) [%],"Pre-emergence efficacy against KCHSC (Kochia scoparia (KCHSC); pre-emergence, dosage 320 g/ha) [%]",Pre-emergence efficacy against KCHSC (Kochia scoparia (KCHSC); [4]) [%],Post-emergence efficacy against SETVI (Setaria viridis (SETVI); 320 g/ha) [%],Post-emergence efficacy against SETVI (Setaria viridis (SETVI); 1280 g/ha) [%],Pre-emergence efficacy against KCHSC (Kochia scoparia (KCHSC); [5]) [%],Post-emergence efficacy against ECHCG in % ([1]; application rate 320 g/ha) [%],Pre-emergence efficacy against VIOTR in % (Viola tricolor (VIOTR) [2]; application rate 80 g/ha) [%],Pre-emergence efficacy against VIOTR in % (Viola tricolor (VIOTR) [2]; application rate 320 g/ha) [%],Post-emergence efficacy against VIOTR in % (Viola tricolor (VIOTR) [3]; application rate 80 g/ha) [%],Post-emergence efficacy against VIOTR in % (Viola tricolor (VIOTR) [3]; application rate 320 g/ha) [%],Post-emergence efficacy against ECHCG in % ([1]; application rate 80 g/ha) [%]
"Cc1cccc(Oc2ncc(Cl)cn2)c1OS(=O)(=O)CCCC(F)(F)F [Example I-28, 2-[(5-Chloropyrimidin-2-yl)oxy]-6-methylphenyl 4,4,4-trifluorobutane-1-sulfonate]",100,100,100,90,100,90,100,100,90,90,90,90,,,,,,,
CCS(=O)(=O)Oc1ccccc1Oc1ncc(Cl)cn1 [Example I-16],100,100,100,,100,,100,100,100,100,,90,100,,,,,,
CC(C)CCS(=O)(=O)Oc1ccccc1Oc1ncc(Cl)cn1 [Example I-25],100,100,100,90,100,,90,100,100,100,90,90,90,100,90,100,,,
Cc1cccc(Oc2ncc(F)cn2)c1OS(=O)(=O)CCC(F)(F)F [Example I-45],,,,,,90,100,100,100,100,,,,,100,100,90,100,
O=S(=O)(CCCC(F)(F)F)Oc1c(F)cccc1Oc1ncc(F)cn1 [Example I-42],,,,,,100,100,100,100,100,,,100,100,100,100,100,100,100
C=CCS(=O)(=O)Oc1ccccc1Oc1ncc(Cl)cn1 [Example I-36],,90,100,,90,,,90,90,100,,90,,,,,,,
O=S(=O)(CCC(F)=C(F)F)Oc1c(F)cccc1Oc1ncc(Cl)cn1 [Example I-70],,,,,,,,,,,,,,100,100,100,100,100,80
CCCS(=O)(=O)Oc1ccccc1Oc1ncc(Cl)cn1 [Example I-3],90,100,100,,90,100,100,100,100,100,,90,100,90,90,100,,,
O=S(=O)(CCC(F)=C(F)F)Oc1c(Cl)cccc1Oc1ncc(Cl)cn1 [Example I-73],100,100,100,,100,,100,100,90,90,,90,,,,100,90,100,
O=S(=O)(CCCC(F)(F)F)Oc1c(Br)cccc1Oc1ncc(Cl)cn1 [Example I-30],90,100,100,90,100,100,100,100,100,100,,,,,,,,,
O=S(=O)(CCl)Oc1ccccc1Oc1ncc(Cl)cn1 [Example I-9],,,100,,90,,100,100,100,100,,90,90,,90,100,,80,
O=S(=O)(CCC(F)(F)F)Oc1c(F)cccc1Oc1ncc(F)cn1 [Example I-47],,,,,,100,100,100,100,100,,,100,100,100,100,100,100,
O=S(=O)(CCC(F)(F)F)Oc1c(Br)cccc1Oc1ncc(Cl)cn1 [Example I-31],90,90,100,90,100,90,100,100,100,100,,90,90,,,,,,
O=S(=O)(CCCCl)Oc1cccc(F)c1Oc1ncc(Cl)cn1 [Example I-13],90,100,100,,100,100,100,100,,100,,,,,,,,,
N#Cc1cccc(Oc2ncc(Cl)cn2)c1OS(=O)(=O)CCCC(F)(F)F [Example I-81],,,,,,,,,,,,,,80,100,100,100,100,80
Cc1cccc(Oc2ncc(F)cn2)c1OS(=O)(=O)CCCC(F)(F)F [Example I-46],,,,,,90,100,100,,90,,,,100,100,100,90,100,
O=S(=O)(CCC(F)(F)F)Oc1c(Br)cccc1Oc1ncc(F)cn1 [Example I-43],,,,,,,100,100,,100,,,,,90,100,90,100,
Cc1cccc(Oc2ncc(Cl)cn2)c1OS(=O)(=O)CCC(F)(F)F [Example I-29],90,90,100,90,100,90,100,100,90,100,100,100,,,,,,,
